These results are taken from patent publication US11174282B2, “Aminosteroid derivatives and process for producing same” (UNIVERSITÉ LAVAL, priority 2016, dated 2021).

“Also recorded” adds a separate entry of the source. Read-outs that look alike come from different tables or passages of the source. Bounds are passed on as bounds.

Data set [1] has as its system LNCaP (prostate cancer) cells. Kind of data set: Cell proliferation assay (MTS), LNCaP. The data set is classed as cell-based. Particulars: Homo sapiens, 72 h, read-out: IC50 (μM) Prostate cancer LNCaP. On the procedure:
(§1) The different aminosteroids were dissolved in methanol (50 mM).

The subject of data set [2] is LAPC-4 (prostate cancer) cells. Kind of data set: Cell proliferation assay (MTS), LAPC-4. The data set is classed as cell-based. Particulars: Homo sapiens, LAPC4, 72 h, 3 days treatment, MTS; read-out: IC50 (μM) Prostate cancer LAPC-4. How it is done: as §1
For data set [3], the system named is T-47D breast cancer cell line. Kind of data set: Cell proliferation assay (MTS), T-47D. The data set is classed as cell-based. Particulars: 72 h; for IC50: Homo sapiens, T47D, 3 days treatment, MTS. On the procedure:
as §1

Data set [4] concerns Human pancreas cancer cells (PANC-1). Kind of data set: Cell proliferation assay (MTS), PANC-1. The data set is classed as cell-based. Particulars: for IC50: 3 days treatment, MTS, read-out: IC50 (μM) Pancreatic cancer PANC-1. On the procedure: as §1
The next data set can be described thus: Water solubility. The data set is classed as physicochemical. The following applies: relative to RM-581-OH.
The test system of data set [5] is OVCAR-3 cells (ovarian cancer). Kind of data set: Cell proliferation assay (MTS), OVCAR-3. It is filed as cell-based. Particulars: for IC50: 3 days treatment, MTS, read-out: IC50 (μM) Ovarian cancer OVCAR-3. How it is done: as §1
Data set [6] can be described thus: Metabolic stability assay, human liver microsomes. The following applies: 1 h. Background: Liver microsomes are vesicles of endoplasmic reticulum, rich in cytochrome P450 enzymes.
Description: (§2) Assays were performed at 37° C. for 1 h, with or without 10 mM NADPH in the presence of 40 μg of human liver microsome from Corning (Melrose, Mass., USA) and 10 μM of aminosteroid substrate in a final 100 μL volume of 50 mM Tris buffer (pH 7.4) supplemented with 10 mM MgCl2. Assays were ended by adding 100 μL of MeOH followed by centrifugation at 13,000 g for 10 min to obtain a pellet of proteins. The supernatant of 2 assays was pooled and submitted to HPLC-MS analysis (Shimadzu LCMS-2020 APCI, Alltima HP C18 (250 mm×4.6 mm, 5 μm) column, MeOH:H2O gradient). Remaining substrate (expressed in %) was calculated by dividing the area under the curve of the substrate for the assays without NADPH by the area under the curve of the substrate for the assays with NADPH and multiplied by 100. Values represent the average of 2 independent experiments.
Data set [7] deals with PANC-1, BxPC-3, Hs766, OVCAR-3, Caov3, SKOV3, MCF-7, T-47D and LAPC-4 cell lines. Kind of data set: Cytotoxic activity screening at 5 and 1 μM on cancer cell lines. The following applies: independently of the cancer cell line tested, result in words.
Description: The cell proliferation assay was performed using 3-(4,5-dimethylthiazol-2-yl)-5-(3-carboxymethoxyphenyl)2-(4-sulfophenyl)-2H-tetrazolium (MTS) (Cell Titer 96 Aqueous, Promega, Nepean, ON, Canada) as previously described [3, 4, 5]. Briefly, cells were plated in triplicate in 96-well plates (1×10^4 cells/well) in appropriate culture medium (total of 90 μL). Before each treatment, the cells were incubated at 37° C. in a 5% CO2 humidified atmosphere for 24 h. The different aminosteroids were dissolved in methanol (50 mM). The stock solutions were diluted at multiple concentrations with culture media in order to obtain the desired final concentration followed by the addition of 10 μL to each well, and the mixture incubated for 3 days. Following treatment, MTS (10 μL) was added to each well and the mixture was incubated for 4 h.
Data set [8] relates to MCF-7 breast cancer cells. Kind of data set: Cell proliferation assay (MTS), MCF-7. The data set is classed as cell-based, human. The following applies: 3 days treatment. On the procedure:
as §1

Data set [9] relates to PC-3 (prostate cancer) cells. Kind of data set: Cell proliferation assay (MTS), PC-3. It is filed as cell-based. Particulars: 72 h, read-out: IC50 (μM) Prostate cancer PC-3. On the procedure:
as §1

Data set [10] concerns primary pancreas, primary ovary and renal proximal tubule epithelial cells (RPTEC). The data set is described as follows: Toxicity on the normal cell types tested. The following applies: higher concentration tested 50 μM.
Description: Human primary epithelial pancreas and ovary cells were obtained from Cedarlane (Chicago, Ill., USA) and were cultured in the manufacturer recommended medium. Human renal proximal tubule epithelial cells (RPTEC) were obtained from Lonza (Mississauga, ON, Canada) and were maintained in DMEM-F12 supplemented as previously reported [4]. The cell lines were all maintained under a 5% CO2 humidified atmosphere at 37° C. and the culture medium was changed every 2 to 3 days and the cells were split once a week to maintain cell propagation.
The cell proliferation assay was performed using 3-(4,5-dimethylthiazol-2-yl)-5-(3-carboxymethoxyphenyl)2-(4-sulfophenyl)-2H-tetrazolium (MTS) (Cell Titer 96 Aqueous, Promega, Nepean, ON, Canada) as previously described [3, 4, 5]. Briefly, cells were plated in triplicate in 96-well plates (1×10^4 cells/well) in appropriate culture medium (total of 90 μL). Before each treatment, the cells were incubated at 37° C. in a 5% CO2 humidified atmosphere for 24 h. The different aminosteroids were dissolved in methanol (50 mM). The stock solutions were diluted at multiple concentrations with culture media in order to obtain the desired final concentration followed by the addition of 10 μL to each well, and the mixture incubated for 3 days. Following treatment, MTS (10 μL) was added to each well and the mixture was incubated for 4 h. […] Selectivity was calculated by dividing the IC50 obtained for a specific primary cell by the IC50 for the related cancer cell line.
The test system of data set [11] is primary ovary normal cells. Kind of data set: cells. It is filed as cell-based, human. Particulars: human normal cells; read-out: IC50 (μM) Primary Ovary (normal cells). On the procedure:
as §1

Data set [12] has as its system primary pancreas normal cells. The data set is described as follows: Toxicity on normal cells (MTS), primary pancreas. It is filed as cell-based, human. Particulars: human normal cells. How it is done:
as §1

Data set [13] concerns HL-60 (acute promyelocytic leukemia) cells. The data set is described as follows: Cell proliferation assay (MTS), HL-60. It is filed as cell-based. On the procedure: as §1
Data set [14] relates to renal proximal tubule epithelial cells (RPTEC). Kind of data set: Toxicity on normal cells (MTS), RPTEC. The following applies: normal (kidney) cells, read-out: IC50 (μM) RPTEC (normal cells). It is filed as cell-based, human. On the procedure: as §1
The test system of data set [15] is MCF-10A cells (model for normal breast cells). Kind of data set: Cell proliferation assay (MTS), MCF-10A. The data set is classed as cell-based. On the procedure: A selectivity index (SI) for RM-581-102 was calculated as the ratio of its IC50 value in MCF-10A cells, a cell line used as a model for normal breast cells, versus its IC50 value in MCF-7 breast cancer cells (Table 4). […] It would thus appear that the replacement of the 5α-androstane-3α,17β-diol backbone by that of mestranol, is beneficial for the selectivity of these aminosteroid derivatives.
as §1

The nature of a further data set: in vivo. The following applies: female, Balb/c, mouse.
Data set [16] relates to human MCF-7 breast tumors. Kind of data set: MCF-7 tumor growth (xenograft) in ovariectomized nude mice. The data set is classed as in vivo. Particulars: 60 mg/kg s.c., 28-day treatment. An excerpt: FIG. 2 is an illustration of the effect of aminosteroid RM-581-102 (compound 6) on MCF-7 tumor growth. A) Effect of a 28-day treatment on 17β-estradiol (E2)-induced growth of human MCF-7 breast tumors in ovariectomized (OVX) nude mice in accordance with an embodiment of the present disclosure. Tumor sizes are expressed as the percentage of initial tumor area (day 1 of treatment=100%). Data are expressed as the mean±SEM (n=10-12 tumors and 6-7 mice per group). […] B) Initial and final body weight of the mice.

The conditions of data set [17]: human, microsomes, 1 h, 10 μM, pH 7.4.
Description: as §2
[18] abbreviates: fold of RM-133 activity (>1 = more active).

Description for in vivo: The plasmatic concentration (AUC) of RM-581-102 was determined following four different methods of administration (s.c., p.o., i.v. and i.p.) at the following concentrations: 60 mg/kg of body weight in 0.1 mL for s.c. and p.o. administration; 2 mg/kg of body weight in 0.02 mL for i.v. caudal administration; and 20 mg/kg of body weight in 0.1 mL for i.p. administration. For the s.c., p.o. and i.p. administrations, RM-581-102 was first dissolved in DMSO followed by the addition of propylene glycol to obtain a final concentration of DMSO of 8%. Regarding the i.v. administration, RM-581-102 was first dissolved in DMSO (8%) followed by the addition of DMA (38%) and propylene glycol (60%). For the i.v. administration, the mice were fasted over a period of 8 h before injection of RM-581-102.
Animals: Six to seven week-old female Balb/c mice weighing approximately 18 g were obtained from Charles-River, Inc (St-Constant, Qc., Canada). The animals were acclimatized to environmental conditions (temperature: 22±3° C.; humidity: 50±20%; 12-h light/12-h dark cycles, lights on at 07:15 h) for at least 5 days before starting the experiment. The animals were housed three per cage and were allowed free access to water and a certified commercial rodent food (Rodent diet #T.2018.15, Harlan Teklad, Madison, Wis., U.S.A.). The experiments with the animals were conducted in an animal facility approved by the Canadian Council on Animal Care (CCAC) and the Association for Assessment and Accreditation of Laboratory Animal Care. The study was performed in accordance with the CCAC Guide for Care and Use of Experimental Animals. Institutional approval was obtained.
Assay: The pharmacokinetic study was carried out following four different methods of administration (s.c., p.o., i.v. and i.p.) of RM-581-102 at the following concentrations: 60 mg/kg of body weight in 0.1 mL for s.c. and p.o. administration; 2 mg/kg of body weight in 0.02 mL for i.v. caudal administration; and 20 mg/kg of body weight in 0.1 mL for i.p. administration. For the s.c., p.o. and i.p. administrations, RM-581-102 was first dissolved in DMSO followed by the addition of propylene glycol to obtain a final concentration of DMSO of 8%. Regarding the i.v. administration, RM-581-102 was first dissolved in DMSO (8%) followed by the addition of DMA (38%) and propylene glycol (60%). For the i.v. administration, the mice were fasted over a period of 8 h before injection of RM-581-102. Blood samples for the determination of RM-581-102 plasma concentrations were collected by cardiac puncture at target intervals ranging from 5 minutes to 24 hours post-dose administration from 3 mice/time point. The blood samples were collected in Microvette® potassium-EDTA (ethylenediamine tetra-acetic acid)-coated tubes (Sarstedt AG & Co, Germany) and centrifuged at 3200 rpm for 10 minutes at 4° C. The plasma was subsequently collected and stored at −80° C. until analysis by liquid chromatography/mass spectrometry/mass spectrometry (LC/MS/MS).
The plasma concentrations of RM-581-102 was determined by LC/MS/MS analysis using a procedure developed at CHUQ (CHUL)—Research Center (Bioanalytical Service). For extraction from the plasma, a plasma sample (100 μL) was transferred to individual tubes and 600 μL of ammonium acetate (1 mM) was added. A methanolic solution (50 μL) containing a deuterated steroid internal standard was then added to each tube. Samples were then transferred on Strata-X SPE columns (Phenomenex, Torrance, Calif., USA) and each column was washed with water and methanol:water (10:90, v/v). RM-581-102 was then eluted with 5 mL of methanol containing 1 mM ammonium acetate.

The term IC50 denotes the midpoint of a concentration-inhibition curve. For the compound `C#C[C@@]1(O)CC[C@H]2[C@@H]3CCc4cc(OP(=O)(O)O)c(N5CCN(C(=O)[C@@H]6CCCN6C(=O)c6ccc7ccccc7n6)CC5)cc4[C@H]3CC[C@@]21C` [Compound 5, (17β)-17-ethynyl-17-hydroxy-2-{4-[1-(quinolin-2-ylcarbonyl)-L-prolyl]piperazin-1-yl}estra-1,3,5(10)-trien-3-yl dihydrogen phosphate], the IC50 in data set [1] turned out to be 0.6 ± 0.05 µM; in data set [2], 0.3 ± 0.07 µM; in data set [3], 0.3 ± 0.05 µM; in data set [4] (Homo sapiens, PANC-1, 72 h), 2.6 ± 0.1 µM; in data set [5] (Homo sapiens, OVCAR-3, 72 h), 4.6 ± 0.7 µM; in data set [8] (Homo sapiens, MCF7, 72 h), 1.5 ± 0.3 µM. Besides, the IC50 in data set [9] was 1.3 ± 0.05 µM. Moreover, the water solubility result in the data set “Water solubility” is listed as “significant enhancement of water solubility”. In data set [6] (10 μM, 40 μg human liver microsomes, result in words), the “metabolic stability (% of remaining compound)” value was “stability similar to its phenolic counterpart”. In addition, in data set [7], the “cytotoxic activity in screening (cell survival)” value is “without adversely affecting the antiproliferative properties; also recorded: only slight differences in their respective levels of activity”.
As to `C#C[C@]1(OC(C)=O)CC[C@H]2[C@@H]3CC[C@H]4C[C@H](OC(C)=O)[C@@H](N5CCN(C(=O)[C@@H]6CCCN6C(=O)c6ccc7ccccc7n6)CC5)C[C@]4(C)[C@H]3CC[C@@]21C` [5 (3,17-diester), (2β,3α,5α,17α)-2-{4-[1-(quinolin-2-ylcarbonyl)-L-prolyl]piperazin-1-yl}pregn-20-yne-3,17-diyl diacetate], the “toxicity on the normal cell types tested” value in data set [10] is given as “increased toxicity relative to the mono-ester derivative 4”. Also, the IC50 in [11] turned out to be 25.4 µM; in data set [4], 25 µM; in data set [5] it was 13.1 µM; in data set [12], 16.6 µM; in data set [13] (3 days treatment, MTS, read-out: IC50 (μM) HL-60 (leukemia)) it was 6.44 µM; in [14] it was 45.5 µM. The “antiproliferative activity relative to RM-133, PANC-1” value in data set [4] (setting [18]) worked out at 0.3 fold. In addition, the “antiproliferative activity relative to RM-133, OVCAR-3” value in data set [5] (setting [18]) was 0.4 fold. In addition, the “increased metabolic stability relative to RM-133” value in data set [6] (human hepatic microsomes) is given as 3.5 fold. Besides, the “antiproliferative activity relative to RM-133, HL-60” value in [13] (setting [18]) is reported as “activity similar to RM-133”.
A word on the AUC(0-t): it is exposure summed from dosing to a finite time, without extrapolation to infinity. `C#C[C@]1(O)CC[C@H]2[C@@H]3CCc4cc(OC)c(N5CCN(C(=O)[C@@H]6CCCN6C(=O)c6ccc7ccccc7n6)CC5)cc4[C@H]3CC[C@@]21C` [RM-581, {4-[17α-Ethynyl-17I-hydroxy-3-methoxyestra-1,3,5(10)-trien-2-yl]piperazin-1-yl}[(2S)-1-(quinolin-2-ylcarbonyl)pyrrolidin-2-yl]methanone]: the 50% inhibitory concentration (IC50) in data set [1] (3 days treatment, MTS) worked out at 1.2 ± 0.6 µM; in [2], 0.6 ± 0.3 µM; in [15] (Homo sapiens, MCF-10A, model for normal breast cells) it was 16.8 µM; in [3], 0.5 ± 0.05 µM; in [4] (Homo sapiens, PANC-1, 72 h) it was 3.9 ± 0.9 µM; in [5] (Homo sapiens, OVCAR-3, 72 h), 5 ± 0.5 µM. The IC50 in [8] was 2.6 ± 0.3 µM; in [8] (listed as RM-581-102), 1.1 ± 0.1 µM; in data set [9] (3 days treatment, MTS), 1.6 ± 0.3 µM; in data set [14] (Homo sapiens, RPTEC), more than 50 µM. The “times more selective compared to RM-133” value in data set [15] (in vitro MCF-7 and MCF-10A cell models) was found to be 5.1 times. Besides, the “Selectivity Index” value in data set [15] (ratio of IC50 in MCF-10A cells versus IC50 in MCF-7 cells) was 15.3. Also, in data set [3] (T-47D, 1.0 and 5 μM, vs paclitaxel, gemcitabine, fluorouacil, oxaliplatin, irinotecan), the “cytotoxic activity compared with known antineoplastic agents” value was “stronger cytotoxic activities at both concentrations”. The AUC(0-t) was found to be 11400 ng·h/mL in “in vivo” (ip, 20 mg/kg); 595 ng·h/mL in the data set “in vivo” (iv, 2 mg/kg); 5540 ng·h/mL in “in vivo” (po, 60 mg/kg); 7760 ng·h/mL in the data set “in vivo” (sc, 60 mg/kg). The concentration at 3 h turned out to be 5300 ng/mL in “in vivo” (ip, 20 mg/kg); 300 ng/mL in the data set “in vivo” (iv, 2 mg/kg); 550 ng/mL in the data set “in vivo” (po, 60 mg/kg); 600 ng/mL in the data set “in vivo” (sc, 60 mg/kg). The “behavioral changes, signs of toxicity and weight loss” value in data set [16] (compared with control groups) is “no behavioral changes, signs of toxicity and weight loss”. In addition, the “MCF-7 tumor growth (tumor size, % of initial tumor area)” value in [16] (6 days per week, E2-stimulated OVX nude mice) is given as “complete blockade of tumor growth; also recorded: significant tumor regression from day 21 up to day 28”. Also, the “metabolic stability (% of remaining compound)” value in [17] was “significantly more stable toward phase-I hepatic metabolism than RM-133”.
